Drawing on ChEMBL document CHEMBL3639234, “Pyrimidine PDE10 inhibitors” (2015), this text covers Ki for one compound.

By Ki is commonly meant the dissociation constant of the complex between target and ligand, obtained from inhibition or displacement. A high value points to a looser hold on the target.

In this experiment the target is cAMP and cAMP-inhibited cGMP 3',5'-cyclic phosphodiesterase 10A (Homo sapiens, UniProt Q9Y233). Briefly: Inhibition Assay: PDE10A2 was amplified from human fetal brain cDNA (Clontech, Mountain View, Calif.) using a forward primer corresponding to nucleotides 56-77 of human PDE10A2 (Accession No. AF127480, Genbank Identifier 4894716), containing a Kozak consensus sequence, and a reverse primer corresponding to nucleotides 2406-2413 of human PDE10A2 (Accession No. AF127480, Genbank Identifier 4894716). Amplification with Easy-A polymerase (Stratagene, La Jolla, Calif.) was 95° C. for 2 minutes followed by thirty three cycles of 95° C. for 40 seconds, 55° C. for 30 seconds, and 72° C. for 2 minutes 48 seconds. Final extension was 72° C. for 7 minutes. The PCR product was TA cloned into pcDNA3.2-TOPO (Invitrogen, Carlsbad, Calif.) according to standard protocol. AD293 cells with 70-80% confluency were transiently transfected with human PDE10A2/pcDNA3.2-TOPO using Lipofectamine 2000 according to manufacturer specifications (Invitrogen, Carlsbad, Calif.). Cells were harvested 48 hours post-transfection. The format is cell-based.
cAMP and cAMP-inhibited cGMP 3',5'-cyclic phosphodiesterase 10A, sequence (Q9Y233 whole entry): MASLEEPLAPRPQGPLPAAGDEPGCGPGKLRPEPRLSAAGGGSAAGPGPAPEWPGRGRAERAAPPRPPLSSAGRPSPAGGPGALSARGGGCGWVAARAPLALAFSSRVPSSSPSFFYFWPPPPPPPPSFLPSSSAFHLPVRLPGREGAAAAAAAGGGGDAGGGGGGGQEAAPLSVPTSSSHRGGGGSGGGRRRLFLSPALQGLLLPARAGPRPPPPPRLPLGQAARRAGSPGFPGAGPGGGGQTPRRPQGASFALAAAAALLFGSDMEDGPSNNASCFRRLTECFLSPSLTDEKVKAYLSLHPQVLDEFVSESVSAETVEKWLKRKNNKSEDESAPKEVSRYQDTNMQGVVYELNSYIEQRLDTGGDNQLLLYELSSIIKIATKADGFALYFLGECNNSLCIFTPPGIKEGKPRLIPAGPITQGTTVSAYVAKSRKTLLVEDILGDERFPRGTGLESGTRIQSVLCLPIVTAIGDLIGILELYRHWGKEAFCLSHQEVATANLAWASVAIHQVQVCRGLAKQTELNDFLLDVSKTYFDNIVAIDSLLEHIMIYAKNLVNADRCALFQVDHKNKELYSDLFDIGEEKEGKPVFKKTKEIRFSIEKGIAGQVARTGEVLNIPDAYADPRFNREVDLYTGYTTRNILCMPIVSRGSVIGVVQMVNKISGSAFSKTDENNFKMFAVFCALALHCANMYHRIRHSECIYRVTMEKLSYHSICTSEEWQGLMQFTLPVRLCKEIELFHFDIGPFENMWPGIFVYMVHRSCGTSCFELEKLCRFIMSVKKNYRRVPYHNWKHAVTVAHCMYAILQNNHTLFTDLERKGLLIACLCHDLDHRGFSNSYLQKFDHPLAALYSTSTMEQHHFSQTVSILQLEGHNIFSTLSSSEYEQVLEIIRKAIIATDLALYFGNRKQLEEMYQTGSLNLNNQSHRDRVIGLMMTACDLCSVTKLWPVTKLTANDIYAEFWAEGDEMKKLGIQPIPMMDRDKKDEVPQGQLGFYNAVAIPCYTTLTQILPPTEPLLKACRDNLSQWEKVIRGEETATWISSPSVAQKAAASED

Structures are written as SMILES.

`Cc1ccc([C@H]2C[C@@H]2COc2cc(NCc3cnn(C)c3)nc(C)n2)nc1` registered a Ki of 0.04 nM. That is a picomolar value.
